From patent US6518243B1, “Desleucyl glycopeptide antibiotics and methods of making same” (Trustees of Princeton University, priority 1999, dated 2003)

Key:
S. aureus (ATCC 29213) = assay: Zone of inhibition screen, 96 well agar array format; format: cell-based; set-up: scale not given here
In short: (§1)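 Panel screening of every compound against several bacterial strains, among them E. faecium ATCC 49624, was done in a 96-well agar array.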

E. faecalis (CL 4877) = assay: as above; format: cell-based; set-up: scale not given here
In short: as §1

[1] = zone of inhibition relative to 1 mg/ml stock solution of p-chlorobiphenylvancomycin
[2] = zone of inhibition relative to 1 mg/ml p-chlorobiphenylvancomycin

| SMILES | zone score, S. aureus ATCC 29213 (S. aureus (ATCC 29213); [1]) | other results |
| --- | --- | --- |
| CC1OC(OC2C(Oc3c4cc5cc3Oc3ccc(cc3Cl)C(O)C3NC(=O)C(NC(=O)C5NC(=O)C(CC(N)=O)NC(=O)C(NC(=O)CNC(=O)c5cccnc5)C(O)c5ccc(c(Cl)c5)O4)c4ccc(O)c(c4)-c4c(O)cc(O)cc4C(C(=O)O)NC3=O)OC(CO)C(O)C2O)CC(C)(NCc2ccc(-c3ccc(Cl)cc3)cc2)C1O (centres unmarked) [Compound 197] | 2 | zone score, E. faecalis CL 4877 (E. faecalis (CL 4877); [1]): 2 |
| CC1OC(OC2C(Oc3c4cc5cc3Oc3ccc(cc3Cl)C(O)C3NC(=O)C(NC(=O)C5NC(=O)C(CC(N)=O)NC(=O)C(NC(=O)CN(CCO)CCO)C(O)c5ccc(c(Cl)c5)O4)c4ccc(O)c(c4)-c4c(O)cc(O)cc4C(C(=O)O)NC3=O)OC(CO)C(O)C2O)CC(C)(NCc2ccc(-c3ccc(Cl)cc3)cc2)C1O (centres unmarked) [Compound 130] | 2 | zone score, E. faecalis CL 4877 (E. faecalis (CL 4877); [1]): 2 |
| CC1OC(OC2C(Oc3c4cc5cc3Oc3ccc(cc3Cl)C(O)C3NC(=O)C(NC(=O)C5NC(=O)C(CC(N)=O)NC(=O)C(NC(=O)CCC(=O)NN(C)C)C(O)c5ccc(c(Cl)c5)O4)c4ccc(O)c(c4)-c4c(O)cc(O)cc4C(C(=O)O)NC3=O)OC(CO)C(O)C2O)CC(C)(NCc2ccc(-c3ccc(Cl)cc3)cc2)C1O (centres unmarked) [Compound 203] | 2 | – |
| CC(=O)NC(C)C(=O)NC1C(=O)NC(CC(N)=O)C(=O)NC2C(=O)NC3C(=O)NC(C(=O)NC(C(=O)O)c4cc(O)cc(O)c4-c4cc3ccc4O)C(O)c3ccc(c(Cl)c3)Oc3cc2cc(c3OC2OC(CO)C(O)C(O)C2OC2CC(C)(NCc3ccc(-c4ccc(Cl)cc4)cc3)C(O)C(C)O2)Oc2ccc(cc2Cl)C1O (centres unmarked) [Compound 110] | 2 | zone score, E. faecalis CL 4877 (E. faecalis (CL 4877); [1]): 2 |
| CC1OC(OC2C(Oc3c4cc5cc3Oc3ccc(cc3Cl)C(O)C3NC(=O)C(NC(=O)C5NC(=O)C(CC(N)=O)NC(=O)C(NC(=O)C(N)=O)C(O)c5ccc(c(Cl)c5)O4)c4ccc(O)c(c4)-c4c(O)cc(O)cc4C(C(=O)O)NC3=O)OC(CO)C(O)C2O)CC(C)(NCc2ccc(-c3ccc(Cl)cc3)cc2)C1O (centres unmarked) [Compound 200] | 2 | zone score, E. faecalis CL 4877 (E. faecalis (CL 4877); [1]): 2 |
| CC1OC(OC2C(Oc3c4cc5cc3Oc3ccc(cc3Cl)C(O)C3NC(=O)C(NC(=O)C5NC(=O)C(CC(N)=O)NC(=O)C(NC(=O)CON)C(O)c5ccc(c(Cl)c5)O4)c4ccc(O)c(c4)-c4c(O)cc(O)cc4C(C(=O)O)NC3=O)OC(CO)C(O)C2O)CC(C)(NCc2ccc(-c3ccc(Cl)cc3)cc2)C1O (centres unmarked) [Compound 222] | – | zone score, S. aureus ATCC 29213 (S. aureus (ATCC 29213); [2]): 2; zone score, E. faecalis CL 4877 (E. faecalis (CL 4877); [2]): 2 |
| CC(=O)N1CC(O)CC1C(=O)NC1C(=O)NC(CC(N)=O)C(=O)NC2C(=O)NC3C(=O)NC(C(=O)NC(C(=O)O)c4cc(O)cc(O)c4-c4cc3ccc4O)C(O)c3ccc(c(Cl)c3)Oc3cc2cc(c3OC2OC(CO)C(O)C(O)C2OC2CC(C)(NCc3ccc(-c4ccc(Cl)cc4)cc3)C(O)C(C)O2)Oc2ccc(cc2Cl)C1O (centres unmarked) [Compound 121] | 2 | zone score, E. faecalis CL 4877 (E. faecalis (CL 4877); [1]): 2 |
| CC1OC(OC2C(Oc3c4cc5cc3Oc3ccc(cc3Cl)C(O)C3NC(=O)C(NC(=O)C5NC(=O)C(CC(N)=O)NC(=O)C(NC(=O)c5cccc(SC(F)(F)F)c5)C(O)c5ccc(c(Cl)c5)O4)c4ccc(O)c(c4)-c4c(O)cc(O)cc4C(C(=O)O)NC3=O)OC(CO)C(O)C2O)CC(C)(NCc2ccc(-c3ccc(Cl)cc3)cc2)C1O (centres unmarked) [Compound 248] | – | zone score, S. aureus ATCC 29213 (S. aureus (ATCC 29213); [2]): 2; zone score, E. faecalis CL 4877 (E. faecalis (CL 4877); [2]): 2 |
| CC(=O)NCSCC(N)C(=O)NC1C(=O)NC(CC(N)=O)C(=O)NC2C(=O)NC3C(=O)NC(C(=O)NC(C(=O)O)c4cc(O)cc(O)c4-c4cc3ccc4O)C(O)c3ccc(c(Cl)c3)Oc3cc2cc(c3OC2OC(CO)C(O)C(O)C2OC2CC(C)(NCc3ccc(-c4ccc(Cl)cc4)cc3)C(O)C(C)O2)Oc2ccc(cc2Cl)C1O (centres unmarked) [Compound 49] | 2 | zone score, E. faecalis CL 4877 (E. faecalis (CL 4877); [1]): 2 |
| CC1OC(OC2C(Oc3c4cc5cc3Oc3ccc(cc3Cl)C(O)C(NC(=O)C3(N)CC3)C(=O)NC(CC(N)=O)C(=O)NC5C(=O)NC3C(=O)NC(C(=O)NC(C(=O)O)c5cc(O)cc(O)c5-c5cc3ccc5O)C(O)c3ccc(c(Cl)c3)O4)OC(CO)C(O)C2O)CC(C)(NCc2ccc(-c3ccc(Cl)cc3)cc2)C1O (centres unmarked) [Compound 218] | – | zone score, S. aureus ATCC 29213 (S. aureus (ATCC 29213); [2]): 2 |
| CC(=O)NC(CC[S+](C)[O-])C(=O)NC1C(=O)NC(CC(N)=O)C(=O)NC2C(=O)NC3C(=O)NC(C(=O)NC(C(=O)O)c4cc(O)cc(O)c4-c4cc3ccc4O)C(O)c3ccc(c(Cl)c3)Oc3cc2cc(c3OC2OC(CO)C(O)C(O)C2OC2CC(C)(NCc3ccc(-c4ccc(Cl)cc4)cc3)C(O)C(C)O2)Oc2ccc(cc2Cl)C1O (centres unmarked) [Compound 124] | 2 | – |
| CC(C)=C(N)C(=O)NC1C(=O)NC(CC(N)=O)C(=O)NC2C(=O)NC3C(=O)NC(C(=O)NC(C(=O)O)c4cc(O)cc(O)c4-c4cc3ccc4O)C(O)c3ccc(c(Cl)c3)Oc3cc2cc(c3OC2OC(CO)C(O)C(O)C2OC2CC(C)(NCc3ccc(-c4ccc(Cl)cc4)cc3)C(O)C(C)O2)Oc2ccc(cc2Cl)C1O (centres unmarked) [Compound 216] | – | zone score, S. aureus ATCC 29213 (S. aureus (ATCC 29213); [2]): 2 |
| CC1OC(OC2C(Oc3c4cc5cc3Oc3ccc(cc3Cl)C(O)C(NC(=O)C(F)(F)C(F)(F)C(F)(F)C(F)(F)F)C(=O)NC(CC(N)=O)C(=O)NC5C(=O)NC3C(=O)NC(C(=O)NC(C(=O)O)c5cc(O)cc(O)c5-c5cc3ccc5O)C(O)c3ccc(c(Cl)c3)O4)OC(CO)C(O)C2O)CC(C)(NCc2ccc(-c3ccc(Cl)cc3)cc2)C1O (centres unmarked) [Compound 311] | – | zone score, S. aureus ATCC 29213 (S. aureus (ATCC 29213); [2]): 2 |
| CC1OC(OC2C(Oc3c4cc5cc3Oc3ccc(cc3Cl)[C@@H](O)[C@@H](NC(=O)CC3NC(=O)NC3=O)C(=O)N[C@@H](CC(N)=O)C(=O)N[C@H]5C(=O)NC3C(=O)N[C@H](C(=O)N[C@@H](C(=O)O)c5cc(O)cc(O)c5-c5cc3ccc5O)[C@H](O)c3ccc(c(Cl)c3)O4)OC(CO)C(O)C2O)CC(C)(NCc2ccc(-c3ccc(Cl)cc3)cc2)C1O (some centres unmarked) [Compound 163] | 2 | – |
| CSCCC(NC=O)C(=O)NC1C(=O)NC(CC(N)=O)C(=O)NC2C(=O)NC3C(=O)NC(C(=O)NC(C(=O)O)c4cc(O)cc(O)c4-c4cc3ccc4O)C(O)c3ccc(c(Cl)c3)Oc3cc2cc(c3OC2OC(CO)C(O)C(O)C2OC2CC(C)(NCc3ccc(-c4ccc(Cl)cc4)cc3)C(O)C(C)O2)Oc2ccc(cc2Cl)C1O (centres unmarked) [Compound 196] | 2 | – |
| COC(=O)C1=C(C)NC(=O)C1CC(=O)NC1C(=O)NC(CC(N)=O)C(=O)NC2C(=O)NC3C(=O)NC(C(=O)NC(C(=O)O)c4cc(O)cc(O)c4-c4cc3ccc4O)C(O)c3ccc(c(Cl)c3)Oc3cc2cc(c3OC2OC(CO)C(O)C(O)C2OC2CC(C)(NCc3ccc(-c4ccc(Cl)cc4)cc3)C(O)C(C)O2)Oc2ccc(cc2Cl)C1O (mixture of isomers) [Compound 299] | – | zone score, S. aureus ATCC 29213 (S. aureus (ATCC 29213); [2]): 2 |
| CC1OC(OC2C(Oc3c4cc5cc3Oc3ccc(cc3Cl)C(O)C3NC(=O)C(NC(=O)C5NC(=O)C(CC(N)=O)NC(=O)C(NC(=O)c5[nH]c(=O)[nH]c(=O)c5N)C(O)c5ccc(c(Cl)c5)O4)c4ccc(O)c(c4)-c4c(O)cc(O)cc4C(C(=O)O)NC3=O)OC(CO)C(O)C2O)CC(C)(NCc2ccc(-c3ccc(Cl)cc3)cc2)C1O (centres unmarked) [Compound 109] | 2 | – |
| C[C@H]1O[C@H](O[C@H]2[C@H](Oc3c4cc5cc3Oc3ccc(cc3Cl)[C@@H](O)[C@@H](NC(=O)[C@@H](N)Cc3ccc(OC(C)(C)C)cc3)C(=O)N[C@@H](CC(N)=O)C(=O)N[C@H]5C(=O)N[C@H]3C(=O)N[C@H](C(=O)N[C@@H](C(=O)O)c5cc(O)cc(O)c5-c5cc3ccc5O)[C@H](O)c3ccc(c(Cl)c3)O4)O[C@H](CO)[C@@H](O)[C@@H]2O)C[C@@](C)(NCc2ccc(-c3ccc(Cl)cc3)cc2)[C@H]1O [Compound 19] | 2 | – |
| CC1OC(OC2C(Oc3c4cc5cc3Oc3ccc(cc3Cl)C(O)C(NC(=O)C3OC(O)C(O)C3O)C(=O)NC(CC(N)=O)C(=O)NC5C(=O)NC3C(=O)NC(C(=O)NC(C(=O)O)c5cc(O)cc(O)c5-c5cc3ccc5O)C(O)c3ccc(c(Cl)c3)O4)OC(CO)C(O)C2O)CC(C)(NCc2ccc(-c3ccc(Cl)cc3)cc2)C1O (mixture of isomers) [Compound 128] | 2 | – |
| CC1OC(OC2C(Oc3c4cc5cc3Oc3ccc(cc3Cl)C(O)C3NC(=O)C(NC(=O)C5NC(=O)C(CC(N)=O)NC(=O)C(NC(=O)C(CCS(C)(=O)=O)NC(=O)OC(C)(C)C)C(O)c5ccc(c(Cl)c5)O4)c4ccc(O)c(c4)-c4c(O)cc(O)cc4C(C(=O)O)NC3=O)OC(CO)C(O)C2O)CC(C)(NCc2ccc(-c3ccc(Cl)cc3)cc2)C1O (centres unmarked) [Compound 143] | 2 | – |
| CC(=O)NCCCCC(NC(C)=O)C(=O)NC1C(=O)NC(CC(N)=O)C(=O)NC2C(=O)NC3C(=O)NC(C(=O)NC(C(=O)O)c4cc(O)cc(O)c4-c4cc3ccc4O)C(O)c3ccc(c(Cl)c3)Oc3cc2cc(c3OC2OC(CO)C(O)C(O)C2OC2CC(C)(NCc3ccc(-c4ccc(Cl)cc4)cc3)C(O)C(C)O2)Oc2ccc(cc2Cl)C1O (centres unmarked) [Compound 123] | 2 | – |
| CC(=O)NC(C)C(=O)NC1C(=O)NC(CC(N)=O)C(=O)NC2C(=O)NC3C(=O)NC(C(=O)NC(C(=O)O)c4cc(O)cc(O)c4-c4cc3ccc4O)C(O)c3ccc(c(Cl)c3)Oc3cc2cc(c3OC2OC(CO)C(O)C(O)C2OC2CC(C)(NCc3ccc(-c4ccc(Cl)cc4)cc3)C(O)C(C)O2)Oc2ccc(cc2Cl)C1O (centres unmarked) [Compound 112] | 2 | – |
| CC1OC(OC2C(Oc3c4cc5cc3Oc3ccc(cc3Cl)C(O)C(NC(=O)C(C)(C)NC(N)=O)C(=O)NC(CC(N)=O)C(=O)NC5C(=O)NC3C(=O)NC(C(=O)NC(C(=O)O)c5cc(O)cc(O)c5-c5cc3ccc5O)C(O)c3ccc(c(Cl)c3)O4)OC(CO)C(O)C2O)CC(C)(NCc2ccc(-c3ccc(Cl)cc3)cc2)C1O (centres unmarked) [Compound 190] | 2 | – |
| CC1OC(OC2C(Oc3c4cc5cc3Oc3ccc(cc3Cl)C(O)C3NC(=O)C(NC(=O)C5NC(=O)C(CC(N)=O)NC(=O)C(NC(=O)C(=O)c5ccco5)C(O)c5ccc(c(Cl)c5)O4)c4ccc(O)c(c4)-c4c(O)cc(O)cc4C(C(=O)O)NC3=O)OC(CO)C(O)C2O)CC(C)(NCc2ccc(-c3ccc(Cl)cc3)cc2)C1O (centres unmarked) [Compound 239] | – | zone score, S. aureus ATCC 29213 (S. aureus (ATCC 29213); [2]): 2 |
